# Laboratory results as given in ChEMBL document CHEMBL2021882, “Aglycone-focused randomization of 2-difluoromethylphenyl-type sialoside suicide substrates for neuraminidases” (Bioorg Med Chem, 2012).
# System: Vibrio cholerae
# Description: Inhibition of Vibrio cholerae neuraminidase using 4-MU-NANA as substrate preincubated for 15 mins prior addition of substrate measured at 5 mins intervals by fluorimetry relative to control
smiles,measurement,value
COc1ncc(C(F)(F)F)cc1NC(=O)OCc1cn(-c2ccc(O[C@]3(C(=O)O)C[C@H](O)[C@@H](NC(C)=O)[C@H]([C@H](O)[C@H](O)CO)O3)c(C(F)F)c2)nn1,Kinact,0.091 min⁻¹
same,T1/2,7.6 min
